{"source": "paper PMC12128972", "about": "“TYRA-300, an FGFR3-selective inhibitor, promotes bone growth in two FGFR3-driven models of chondrodysplasia” (JCI Insight, 2025)", "system": "Fgfr3^Y367C/+ mouse model, which mimics the phenotype of ACH", "experiment": "Fgfr3Y367C/+ mice: growth, body weight and long bone length (calipers, x-ray)", "assay_type": "in vivo", "parameters": "nasoanal length, individual mice / tail length, individual mice: unit not given here", "settings": "for nasoanal length, individual mice / tail length, individual mice / body weight, individual mice: 1.2 mg/kg/d s.c. from day 1", "method": "In this study, Fgfr3^Y367C/+ mice were administered TYRA-300 daily by subcutaneous injection at a dose of 1.2 mg/kg for 15 days beginning at 1 day of age to evaluate the effects on growth, bone length, and key skeletal parameters, compared with those of vehicle-treated Fgfr3^Y367C/+ mice. Results were also compared with those from vehicle-treated Fgfr3^+/+ (wild-type) mice. […] In Fgfr3^Y367C/+ mice, the […], resulting in disproportionate long bones.\nTg-CMV^Cre/+/Fgfr3^Y367C/+ mice were tattooed and assigned to treatment groups within each litter at 1 day of age (wild-type mice, Fgfr3^Y367/+ mice treated with vehicle, or Fgfr3^Y367/+ mice treated with 1.2 mg/kg TYRA-300). TYRA-300 was dissolved in aqueous HCl (3.5 mM) containing 5% dimethyl sulfoxide (DMSO) and administered subcutaneously to Fgfr3^Y367/+ mice (n = 8) for 15 days. The vehicle was administered to wild-type (n = 10) or Fgfr3^Y367/+ mice (n = 10) for 15 days. Subcutaneous administration was used for this study rather than oral gavage due to the reduced size of the mice. Clinical observations, nasoanal length and tail length measurements were performed every 3 days, and body weights were collected daily.\nWhole body x-ray images were taken of all animals by Faxitron specimen radiography MX-20 (Faxitron X-Ray LLC) following terminal sacrifice. The length of the L4–L6 lumbar vertebra segment was also measured for each animal using calipers, and the height of the L5 vertebral body was measured from Alcian blue/Sirius red images. Long bones and the skull were then excised, and their dimensions were measured using calipers (VWRi819-0013, VWR International). The transverse and sagittal diameters of the foramen magnum were also measured using calipers for the Fgfr3^Y367/+ model, and measured using the μCT images for the Fgfr3^N534K/+ model.", "key": {"[1]": {"settings": "1.2 mg/kg s.c. daily for 15 days"}, "[2]": {"settings": "1.2 mg/kg s.c. daily for 15 days from 1 day of age"}, "[3]": {"settings": "Fgfr3Y367C/+ mice + TYRA-300, individual animal values, in mm (unit assumed)"}}, "note": "Where “and” joins values, the source holds several entries; their conditions need not be identical. Identical values can stand only once."}
{"compound": "C[C@@H](Oc1ccc2[nH]nc(-c3ccc(N4CC5(C4)CN(S(C)(=O)=O)C5)nc3)c2c1)c1c(Cl)cncc1Cl", "note": "[TYRA-300]", "values": [{"measurement": "increase in length of the femur vs vehicle", "setting": "[1]", "result": 22.55, "unit": "%"}, {"measurement": "increase in length of the humerus vs vehicle", "setting": "[1]", "result": 15.52, "unit": "%"}, {"measurement": "increase in length of the tibia vs vehicle", "setting": "[1]", "result": 33.01, "unit": "%"}, {"measurement": "increase in length of the ulna vs vehicle", "setting": "[1]", "result": 23.51, "unit": "%"}, {"measurement": "increase in nasoanal length vs vehicle-treated mutant mice", "setting": "[2]", "result": 17.88, "unit": "%"}, {"measurement": "increase in tail length vs vehicle-treated mutant mice", "setting": "[2]", "result": 25.10, "unit": "%"}, {"measurement": "increase in body weight vs vehicle-treated mice", "setting": "1.2 mg/kg s.c. daily, end of treatment", "result": 52.9, "unit": "%"}, {"measurement": "nasoanal length, individual mice", "setting": "day 1", "result": "29 (4×) and 30 and 28 and 31 (2×)"}, {"measurement": "tail length, individual mice", "setting": "day 1", "result": "12 and 13 (6×) and 14"}, {"measurement": "body weight, individual mice", "setting": "day 1, in g (unit assumed)", "result": "1.56 and 1.58 and 1.46 and 1.33 and 1.47 and 1.4 and 1.37 and 1.6"}, {"measurement": "body weight, individual mice", "setting": "day 2, in g (unit assumed)", "result": "1.72 and 1.94 and 1.84 and 1.42 and 1.55 and 1.46 and 1.53 and 2.01"}, {"measurement": "body weight, individual mice", "setting": "day 3, in g (unit assumed)", "result": "1.9 and 2.33 and 2.12 and 1.64 and 1.76 and 1.63 and 1.84 and 2.4"}, {"measurement": "nasoanal length, individual mice", "setting": "day 4", "result": "32 and 34 (2×) and 35 and 31 and 33 (3×)"}, {"measurement": "tail length, individual mice", "setting": "day 4", "result": "17 (3×) and 18 and 19 and 16 (2×) and 15"}, {"measurement": "body weight, individual mice", "setting": "day 4, in g (unit assumed)", "result": "2.07 and 2.76 and 2.5 and 1.89 and 2.29 and 1.86 and 2.18 and 2.91"}, {"measurement": "body weight, individual mice", "setting": "day 5", "result": "2.2 (2×) and 3.12 and 2.97 and 2.23 and 2.52 and 2.53 and 3.27"}, {"measurement": "body weight, individual mice", "setting": "day 6, in g (unit assumed)", "result": "2.34 and 3.32 and 3.31 and 2.62 and 2.85 and 2.61 and 2.97 and 3.58"}, {"measurement": "nasoanal length, individual mice", "setting": "day 7", "result": "35 and 40 and 39 and 34 and 36 (4×)"}, {"measurement": "tail length, individual mice", "setting": "day 7", "result": "25 and 23 (3×) and 21 (2×) and 24 and 22"}, {"measurement": "body weight, individual mice", "setting": "day 7, in g (unit assumed)", "result": "2.5 and 3.76 and 3.67 and 3.01 and 3.07 and 3 and 3.31 and 4"}, {"measurement": "body weight, individual mice", "setting": "day 8, in g (unit assumed)", "result": "2.88 and 4.38 and 4.13 and 3.59 and 3.58 and 3.33 and 3.74 and 4.2"}, {"measurement": "body weight, individual mice", "setting": "day 9", "result": "3.25 and 4.59 (2×) and 4.2 and 3.92 and 3.86 and 3.97 and 4.66"}, {"measurement": "nasoanal length, individual mice", "setting": "day 10", "result": "40 (3×) and 42 (3×) and 38 and 41"}, {"measurement": "tail length, individual mice", "setting": "day 10", "result": "25 and 28 and 27 (3×) and 26 (2×) and 29"}, {"measurement": "body weight, individual mice", "setting": "day 10, in g (unit assumed)", "result": "3.5 and 5.05 and 4.73 and 4.46 and 4.52 and 4.17 and 4.41 and 4.98"}, {"measurement": "body weight, individual mice", "setting": "day 11, in g (unit assumed)", "result": "3.7 and 5.46 and 5.06 and 4.65 and 4.64 and 4.44 and 4.99 and 5.57"}, {"measurement": "body weight, individual mice", "setting": "day 12, in g (unit assumed)", "result": "4.17 and 6.04 and 5.26 and 5.13 and 4.96 and 4.59 and 5.3 and 5.5"}, {"measurement": "nasoanal length, individual mice", "setting": "day 13", "result": "41 and 46 (2×) and 44 (2×) and 43 and 42 and 45"}, {"measurement": "tail length, individual mice", "setting": "day 13", "result": "31 (4×) and 35 (3×) and 32"}, {"measurement": "body weight, individual mice", "setting": "day 13, in g (unit assumed)", "result": "4.57 and 6.33 and 5.41 and 5.39"}, {"measurement": "nasoanal length, individual mice", "setting": "day 16", "result": "42 and 47 (2×) and 48 and 46 (2×) and 44 and 50"}, {"measurement": "tail length, individual mice", "setting": "day 16", "result": "33 (2×) and 36 (4×) and 34 and 35"}, {"measurement": "average normalization of long bone length toward wild-type", "setting": "ACH model, 1.2 mg/kg", "result": 26, "unit": "%"}, {"measurement": "source data of Figure 2E (sheet \"2E\"): long bone length, bone not given", "setting": "[3]", "result": "7.38 and 6.94 and 7.67 and 7.62 and 7.75 and 7.48 and 7.35 and 7.46"}, {"measurement": "source data of Figure 2F (sheet \"2F\"): long bone length, bone not given", "setting": "[3]", "result": "6.52 and 6.4 and 6.85 and 6.87 and 5.9 and 6.57 and 6.71"}, {"measurement": "source data of Figure 2G (sheet \"2G\"): long bone length, bone not given", "setting": "[3]", "result": "6.5 and 6.23 and 7.03 and 6.67 and 6.08 and 7.07 and 6.74 and 6.82"}, {"measurement": "source data of Figure 2H (sheet \"2H\"): long bone length, bone not given", "setting": "[3]", "result": "5.78 and 5.71 and 6.17 and 5.84 and 6.2 and 5.91 and 5.85 and 6.02"}, {"measurement": "bone growth compared with low-dose infigratinib (0.5 mg/kg)", "setting": "TYRA-300 1.2 mg/kg, 15 days starting at 1 day of age, comparator data ref 28, 29", "result": "more bone growth than low-dose infigratinib"}]}
